Data set [1] has as its target T1, LOXL2 (Homo sapiens, UniProt Q9Y4K0).
T1 sequence (Q9Y4K0 26-774): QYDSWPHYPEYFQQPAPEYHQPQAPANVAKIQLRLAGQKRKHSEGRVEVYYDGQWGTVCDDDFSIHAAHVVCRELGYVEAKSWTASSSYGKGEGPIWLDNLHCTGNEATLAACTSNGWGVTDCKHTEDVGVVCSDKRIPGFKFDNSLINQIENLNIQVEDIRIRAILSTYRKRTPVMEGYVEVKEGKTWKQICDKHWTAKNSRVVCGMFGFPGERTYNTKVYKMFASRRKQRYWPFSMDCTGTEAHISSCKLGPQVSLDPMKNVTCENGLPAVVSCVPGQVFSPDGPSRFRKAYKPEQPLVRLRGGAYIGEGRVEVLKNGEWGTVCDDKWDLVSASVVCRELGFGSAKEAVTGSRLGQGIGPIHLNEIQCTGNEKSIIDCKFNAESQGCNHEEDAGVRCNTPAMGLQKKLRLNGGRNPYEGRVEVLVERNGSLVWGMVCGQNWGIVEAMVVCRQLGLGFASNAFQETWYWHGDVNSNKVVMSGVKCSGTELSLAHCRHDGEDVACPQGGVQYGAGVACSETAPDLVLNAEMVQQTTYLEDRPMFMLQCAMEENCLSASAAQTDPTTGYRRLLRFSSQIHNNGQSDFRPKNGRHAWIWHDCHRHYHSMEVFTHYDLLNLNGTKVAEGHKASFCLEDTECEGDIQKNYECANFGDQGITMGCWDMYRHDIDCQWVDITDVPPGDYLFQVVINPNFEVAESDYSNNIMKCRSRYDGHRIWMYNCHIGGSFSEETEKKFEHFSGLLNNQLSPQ
Particulars: cited from earlier work.

For data set [2], the target named is LOXL3 (Homo sapiens, UniProt P58215). To be noted: cited from earlier work.
LOXL3, sequence (P58215 26-753, species assumed): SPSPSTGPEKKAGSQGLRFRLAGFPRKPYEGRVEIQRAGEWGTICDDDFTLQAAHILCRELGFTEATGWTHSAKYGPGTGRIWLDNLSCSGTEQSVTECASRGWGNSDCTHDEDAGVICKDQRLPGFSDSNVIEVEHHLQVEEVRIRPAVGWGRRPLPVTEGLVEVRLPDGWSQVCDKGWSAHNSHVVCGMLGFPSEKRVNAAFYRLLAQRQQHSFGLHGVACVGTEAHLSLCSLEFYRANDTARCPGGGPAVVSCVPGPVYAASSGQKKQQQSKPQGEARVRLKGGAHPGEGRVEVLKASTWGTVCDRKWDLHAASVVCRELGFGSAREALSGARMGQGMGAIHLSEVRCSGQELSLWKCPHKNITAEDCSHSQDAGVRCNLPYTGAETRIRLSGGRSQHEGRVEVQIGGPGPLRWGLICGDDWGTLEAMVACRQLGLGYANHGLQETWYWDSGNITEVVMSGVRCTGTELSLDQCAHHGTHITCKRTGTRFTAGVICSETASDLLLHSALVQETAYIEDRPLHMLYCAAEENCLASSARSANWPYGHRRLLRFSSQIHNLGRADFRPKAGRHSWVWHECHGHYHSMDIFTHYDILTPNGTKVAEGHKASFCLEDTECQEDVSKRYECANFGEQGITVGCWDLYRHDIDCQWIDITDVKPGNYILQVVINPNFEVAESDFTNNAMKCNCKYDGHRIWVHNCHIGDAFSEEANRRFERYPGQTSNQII
Data set [3] concerns LOXL2-mediated collagen oxidation and cross-linking. To be noted: in vitro; cited from earlier work.
Data set [4] concerns breast cancer models. Particulars: daily by oral gavage, 70 mg/kg; cited from earlier work.
Data set [5] has as its system kidney fibrosis, lung fibrosis, myelofibrosis and pancreatic cancer models. Particulars: in vivo; cited from earlier work.
For data set [6] the following is noted: human, in vivo; cited from earlier work.
In data set [7] the test system is cellular lysyl oxidase (LOX) activity, MDA-MB-231 cells. Description: Cell-based lysyl oxidase activity assay (Abcam kit). More on the design: species or system human. Particulars: read-out: cellular LOX activity. An excerpt: As the available LOX inhibitors are either not very potent or have toxicity, the inventors developed a robust screening pipeline shown in FIG. 28 to identify potent and safe LOX-specific and pan-LOX inhibitors. Briefly, a high-throughput cell-based LOX activity (Abcam) screen (HTS) was done for more than 5,000 drug-like compounds from the EXPRESS-Pick diversified library (4,480 molecules, ChemBridge) and Tocriscreen library of bioactive compounds (1,280 compounds, Tocris), each at a single concentration of 10 μM. […] The toxic molecules were counter screened with cell cytotoxicity assay and filtered out.
FIGS. 34. […] IC50 for cellular lysyl oxidase activity upon treatment of MDA-MB-231 cells with different LOX inhibitors. uM=microM.
For cell-based lysyl oxidase activity, fluorometric Lysly Oxidase Activity Assay Kit (Abcam, USA) was used according to manufacturer's instructions. Briefly, after the treatment, 50 μl of supernatant from each well was incubated with reagent mix and fluorescence measured in multimode-reader at Ex/Em=540/590 nm wavelength.

The test system of data set [8] is MDA-MB-231 cells embedded in collagen I. As to the kind of experiment: ECM crosslinking by collagen and fibronectin immunofluorescence staining. Format: cell-based, human. The method, then:
FIG. 31. […] A. Inhibition of LOX activity in MDA-MB-231 cells treated with 5 μM of the LOX inhibitors. B. Doxorubicin sensitization with 6232 and its analogs, 6403 and 6415, in 3D collagen-I culture. C. Collagen and fibronectin staining of vehicle or 6232 or 6403 or 6415-treated MDA-MB-231 cells embedded in collagen I. BAPN is used as a positive control.
Immunofluorescence staining of cells was done in μ-Slide 8-well glass bottom chambers (Ibidi, Germany). Cells were fixed with 4% paraformaldehyde for 20 min, permeabilized with 0.5% Triton X-100 for 10 min and blocked in 5% BSA-PBS. Samples were incubated with primary (Collagen I, Fibronectin, F-actin, a-SMA) and secondary Alexa Fluor 647 or 488-labeled antibodies for 1.5 hours at room temperature. Cells were also counterstained with DAPI for 5 min. Images were acquired using ZEN 2012 SP5 (Black) LSM 700 (Carl Zeiss, DE).

Data set [9] deals with MCF12A. As to the kind of experiment: Viability assay in normal cells. Format: cell-based, human. Particulars: normal breast cell line. From the text:
(§1) FIG. 32. 6232 derivatives, 6403 and 6415, show no cytotoxicity in normal cells. Viability assay in normal breast cell line, MCF12A, human foreskin fibroblast cell line, HFF and human endothelial cell line, HUVEC treated with 6403 or 6415.

Data set [10] concerns HFF. Description: Viability assay in normal cells. Format: cell-based. To be noted: human foreskin fibroblast cell line.
Source text: as §1

In data set [11] the test system is HUVEC. As to the kind of experiment: Viability assay in normal cells. The class given is cell-based. Particulars: human endothelial cell line.
Source text: as §1

Data set [12] deals with T1, LOXL2. Details: Simtuzumab only targets extracellular LOXL2; host or cells: pancreatic cancer patients. Particulars: in combination with gemcitabine; cited from earlier work.

As for `Cc1c(-c2cccc(S(=O)(=O)N(C)C)c2)c2ncccc2n1C/C(F)=C/CN.Cl.Cl` [PXS-5153A], the enzyme inhibition entry in data set [1] was “complete and irreversible enzyme inhibition”; in data set [2], “complete and irreversible enzyme inhibition”. Further, the “LOXL2-mediated collagen oxidation and cross-linking” value in data set [3] was “reduce LOXL2-mediated collagen oxidation and cross-linking, in a dose-dependent manner”.
Consider `CS(=O)(=O)c1cc(-c2ccccc2)cc(S(=O)(=O)c2ccc(CN)s2)c1` [CCT365623], for which, in data set [4], the metastasis result is given as “reduced metastasis” and the tumor growth result is “decreased tumor growth”.
For the molecule `NC/C=C(\F)CS(=O)(=O)c1cccc2cccnc12` [PXS-5505], the fibrosis entry in [5] was “significant reductions in fibrosis”. In addition, the tolerability result in data set [6] is “well tolerated”.
In the case of `COCCC(=O)Nc1ccc(Nc2nc(-c3sc(N)nc3C)cs2)cc1` [compound 6425, N-[4-[[4-(2-amino-4-methyl-thiazol-5-yl)thiazol-2-yl]amino]phenyl]-3-methoxy-propanamide], in [7], the IC50 is 7.5 µM.
For the molecule `Cc1nc(N)sc1-c1csc(Nc2ccc(S(N)(=O)=O)cc2)n1` [compound 6405, 4-((2′-amino-4′-methyl-[4,5′-bithiazol]-2-yl)amino)benzenesulfonamide], in data set [8], the “ECM crosslinking (collagen and fibronectin staining)” value was “decrease in ECM crosslinking”. For the same molecule, the “cell viability (cytotoxicity in normal cells)” value in [9], in [10] and in [11] was “No significant effect on the viability” each time.
As to `CCCCC(=O)Nc1ccc(Nc2nc(-c3sc(N)nc3C)cs2)cc1` [compound 6426, N-[4-[[4-(2-amino-4-methyl-thiazol-5-yl)thiazol-2-yl]amino]phenyl]pentanamide], the IC50 in [7] turned out to be 2 µM.

B1: Simtuzumab: non-competitive LOXL2 targeting humanized monoclonal antibody (antibody, chains of the INN, looked up, V domains shown)
VH: QVQLVQSGAEVKKPGASVKVSCKASGYAFTYYLIEWVRQAPGQGLEWIGVINPGSGGTNYNEKFKGRATITADKSTSTAYMELSSLRSEDTAVYFCARNWMNFDYWGQGTTVTVSS
VL: DIVMTQTPLSLSVTPGQPASISCRSSKSLLHSNGNTYLYWFLQKPGQSPQFLIYRMSNLASGVPDRFSGSGSGTDFTLKISRVEAEDVGVYYCMQHLEYPYTFGGGTKVEIK
As to B1, in data set [12], the clinical benefit result is given as “minimal” and the tolerability entry was “well-tolerated”.
